According to patent US9187496B2 (priority 2009, dated 2015):

Tests used:
[1] = tested on: Huh-7 cells containing HCV Con1 subgenomic replicon (GS4.1 cells); experiment: HCV replicon assay (NS5A ELISA); format: cell-based; conditions: Hepatitis C virus, Huh-7; GS4.1 cells, 72 hrs, NS5A ELISA; read-out: EC50
Method: General Procedure: Huh-7 cells containing HCV Con1 subgenomic replicon (GS4.1 cells) were grown in Dulbecco's Modified Eagle Medium (DMEM) supplemented with 10% fetal bovine serum (FBS), 2 mM L-glutamine, 110 mg/L sodium pyruvate, 1× non-essential amino acids, 100 U/mL penicillin-streptomycin, and 0.5 mg/mL G418 (Invitrogen). For dose-response testing, the cells were seeded in 96-well plates at 7.5×10^3 cells/well in a volume of 50 μL, and incubated at 37° C./5% CO2. Three hours after plating, 50 μL of ten 2-fold serial dilutions of compounds (highest concentration, 75 μM) were added, and cell cultures were incubated at 37° C./5% CO2 in the presence of 0.5% DMSO. Alternatively, compounds were tested at a single concentration of 15 μM. In all cases, Huh-7 cells lacking the HCV replicon served as negative control. The cells were incubated in the presence of compounds for 72 hrs after which they were monitored for expression of the NS5A protein by enzyme-linked immunosorbent assay (ELISA). For this, the plates were then fixed for 1 min with acetone/methanol (1:1, v/v), washed twice with phosphate-buffered saline (PBS), 0.1% Tween 20, blocked for 1 hr at room temperature with TNE buffer containing 10% FBS and then incubated for 2 hr at 37° C. with the anti-NS5A mouse monoclonal antibody A-236 (ViroGen) diluted in the same buffer. After washing three times with PBS, 0.1% Tween 20, the cells were incubated 1 hr at 37° C. with anti-mouse immunoglobulin G-peroxidase conjugate in TNE, 10% FBS. After washing as described above, the reaction was developed with O-phenylenediamine (Zymed). The reaction was stopped after 30 min with 2 N H2SO4, and absorbance was read at 492 nm using Sunrise Tecan spectrophotometer. EC50 values were determined from the % inhibition versus concentration data using a sigmoidal non-linear regression analysis based on four parameters with Tecan Magellan software.

GS4.1 cells = experiment: Cytotoxicity evaluation in GS4.1 cells (Cell Titer 96 AQueous One); format: cell-based, human; conditions: cellular viability
Method: For cytotoxicity evaluation, GS4.1 cells were treated with compounds as described above and cellular viability was monitored using the Cell Titer 96 AQueous One Solution Cell Proliferation Assay (Promega). CC50 values were determined from the % cytotoxicity versus concentration data with Tecan Magellan software as described above.

[2] = Cytotoxicity evaluation in luciferase replicon cells (Cell Titer 96 AQueous One); format: cell-based, human; conditions: human; Table 1B, cellular viability
Method: For cytotoxicity evaluation, H1a-luc or Zluc cells were treated with compounds as described above and cellular viability was monitored using the Cell Titer 96 AQueous One Solution Cell Proliferation Assay (Promega). Plates were then read at 490 nm in a Victor^3V 1420 multilabel counter (Perkin Elmer) and CC50 concentrations were determined using Microsoft Excel and XLfit 4.1 software.

[3] = tested on: HCV genotype 2a-specific NS5A gene within the 1b-replicon; experiment: Luciferase replicon assay, NS5A-intergenotypic stable cell line genotype 2a; format: cell-based; conditions: Hepatitis C virus, read-out: EC50 2a
Text: (§1) The nucleotide sequences of the NS5A region of genotype 2a (GenBank Accession #AB047639), genotype 3a (GenBank Accession #D17763), and genotype 4a (GenBank Accession#DQ418788) were synthesized by an outside vendor. The NS5A region of each of these genotypes included the first 11 amino acids of the protease recognition sequence of genotype 1b, as well as the last 10 amino acids of genotype 1b. The NS5A gene cassettes were excised with site specific restriction endonucleases and ligated into a ZS11-luciferase genotype 1b backbone (backbone contains the genotype 1b NS3 protease, NS4a, NS4b, and NS5b coding regions) with similarly cut restriction enzyme sites. Thus, the newly constructed plasmid contains a genotype 2a-, 3a- or 4a-specific NS5A gene within the 1b-replicon.
(§2) These new intergenotypic plasmids were used to establish stable cell lines. RNA was generated from the NS5A intergenotypic plasmids and used in conjunction with a lipofectin reagent to transfect a cured Huh7 cell line. Transfected cells were selected for with G418. After selection has occurred the stable cell lines were propagated, tested for luciferase activity, and RT-PCR with genotype specific primers (either 1a, 2a, 3a, or 4a). Stable cell lines containing the intergenotypic replicon were then fully sequenced and analysed for proper expression of NS3, NS5A and NS5B proteins.
(§3) Drug titration analysis was performed using the luciferase replicon assay described herein.
(§4) The HCV luciferase replicon assay measures the ability of a test compound to inhibit HCV replication in cell culture after 3 days of treatment in a human hepatoma cell line (Huh-7) bearing a HCV replicon containing a luciferase-neomycin phosphotransferase fusion gene. The inhibition of HCV replication was measured by quantification of luciferase protein expression. Briefly, Huh-7 cells containing either the HCV genotype 1a H77 strain or genotype 1b Conl strain subgenomic luciferase replicon (H1a-luc or Zluc, respectively) were grown in DMEM containing glucose, L-glutamine and sodium pyruvate, 10% fetal bovine serum (FBS), 100 IU/mL penicillin, 100 μg/mL streptomycin, 2 mM GlutaMAX, non-essential amino acids and 0.25 (H1a-luc) or 0.5 (Zluc) mg/mL G418. GlutaMAX was obtained from Invitrogen, Corp.; all other media reagents were obtained from Mediatech, Inc. For dose-response testing, the cells were seeded in 96-well plates at 1×10^4 (H1a-luc) or 7.5×10^3 (Zluc) cells/well in a volume of 50 μL, and incubated at 37° C./5% CO2. Three hours after plating, 50 μL of ten 5-fold serial dilutions of compound were added, and cell cultures were incubated at 37° C./5% CO2 for 72 hours. In all cases, Huh-7 cells lacking the HCV replicon served as negative control. To assess luciferase expression, the media/compound was removed from the plates and ONE-glo Luciferase assay reagent (Promega) was added to each well. The assay plates were shaken for 3 minutes at room temperature and luciferase activity for each well was measured with a 1 sec read time on the Victor^3V multilabel counter using a 700 nm cut-off filter (Perkin Elmer). EC50 values were calculated from dose response curves from the resulting best-fit equations determined by Microsoft Excel and XLfit 4.1 software.

[4] = tested on: HCV genotype 4a-specific NS5A gene within the 1b-replicon; experiment: Luciferase replicon assay, NS5A-intergenotypic stable cell line genotype 4a; format: cell-based; conditions: Hepatitis C virus, read-out: EC50 4a
Text: as §1, §2, §3, §4

[5] = tested on: HCV genotype 3a-specific NS5A gene within the 1b-replicon; experiment: Luciferase replicon assay, NS5A-intergenotypic stable cell line genotype 3a; format: cell-based; conditions: Hepatitis C virus, read-out: EC50 3a
Text: as §1, §2, §3, §4

[6] = tested on: HCV genotype 1b Conl strain subgenomic luciferase replicon (Zluc); experiment: Luciferase replicon assay, genotype 1b; format: cell-based; conditions: Hepatitis C virus, 72 h, read-out: EC50 1b
Method: as §4

SMILES | EC50 [1] [nM] | CC50 (GS4.1 cells) [nM] | CC50 at 72 h [2] [nM] | EC50 [3] [nM] | EC50 [4] [nM] | EC50 [5] [nM] | EC50 [6] [nM]
COC(=O)N[C@H](C(=O)N1CCC[C@H]1C(=O)Nc1cn2cc(-c3ccc(-c4cnc([C@@H]5CCCN5C(=O)[C@@H](NC(=O)OC)C(C)C)[nH]4)cc3)sc2n1)C(C)C [Compound A2, (S,S,S,S)-(1-{2-[2-(4-{2-[1-(2-methoxycarbonylamino-3-methyl-butyryl)-pyrrolidin-2-yl]-3H-imidazol-4-yl}-phenyl)-imidazo[2,1-b]thiazol-6-ylcarbamoyl]-pyrrolidine-1-carbonyl}-2-methyl-propyl)-carbamic acid methyl ester] | 1 to 10 | 10000 to 75000 | – | – | – | – | –
CC(C)(C)OC(=O)N[C@@H](C(=O)N1CCOC[C@H]1C(=O)Nc1cn2cc(-c3ccccc3)sc2n1)c1ccccc1 [Compound A22] | > 100 | > 75000 | – | – | – | – | –
CC(C)(C)OC(=O)N[C@@H](C(=O)N1CCC[C@H]1C(=O)Nc1cn2cc(C#Cc3ccccc3)sc2n1)c1ccccc1 [Compound A23] | > 100 | 10000 to 75000 | – | – | – | – | –
COC(=O)N[C@H](C(=O)N1CCC[C@H]1c1ncc(-c2ccc(-c3cn4cc(NC(=O)[C@@H]5CCCN5C(=O)[C@H](NC(=O)OC)c5ccccc5)nc4s3)cc2)[nH]1)C(C)C [Compound A30, (S,S,S,R)-[1-(2-{5-[4-(6-{[1-(2-methoxycarbonylamino-2-phenyl-acetyl)-pyrrolidin-2-carbonyl]-amino}-imidazo[2,1-b]thiazol-2-yl)-phenyl]-1H-imidazol-2-yl}-pyrrolidine-1-carbonyl)-2-methyl-propyl]-carbamic acid methyl ester] | < 1 | > 75000 | – | – | – | – | –
CCOC(=O)N[C@@H](C(=O)N1CCC[C@H]1C(=O)Nc1cn2cc(-c3ccc(-c4cnc([C@@H]5CCCN5C(=O)[C@@H](NC(=O)OC)C(C)C)[nH]4)cc3)sc2n1)c1ccccc1 [Compound A55, (S,S,S,R)-[1-(2-{5-[4-(6-{[1-(2-ethoxycarbonylamino-2-phenylacetyl)-pyrrolidine-2-carbonyl]-amino}imidazo[2,1-b]thiazol-2-yl)-phenyl]-1H-imidazol-2-yl}pyrrolidine-1-carbonyl)-2-methyl-propyl]-carbamic acid methyl ester] | < 1 | 10000 to 75000 | – | – | – | – | –
COC(=O)N[C@H](C(=O)N1CCC[C@H]1c1ncc(-c2csc3c(-c4cnc([C@@H]5CCCN5C(=O)[C@@H](NC(=O)OC)C(C)C)[nH]4)csc23)[nH]1)C(C)C [Compound A82, ((S)-1-{(S)-2-[5-(6-{2-[(S)-1-((S)-2-methoxycarbonylamino-3-methyl-butyryl)-pyrrolidin-2-yl]-3H-imidazol-4-yl}-thieno[3,2-b]thiophen-3-yl)-1H-imidazol-2-yl]-pyrrolidine-1-carbonyl}-2-methyl-propyl)-carbamic acid methyl ester] | < 1 | 10000 to 75000 | – | – | – | – | –
COC(=O)N[C@H](C(=O)N1CCCC1c1nc(-c2cc3sc(-c4cnc([C@@H]5CCCN5C(=O)[C@@H](NC(=O)OC)C(C)C)[nH]4)cc3s2)c[nH]1)C(C)C (stereo partly drawn) [Compound A101] | – | – | > 75000 | 1 to 10 | 1 to 10 | 1 to 10 | < 0.1
COC(=O)N[C@H](C(=O)N1CCCC1c1nc(-c2ccc(-c3c(C(=O)OC)[nH]c4c(-c5ccc(-c6cnc(C7CCCN7C(=O)[C@@H](NC(=O)OC)C(C)C)[nH]6)cc5)csc34)cc2)c[nH]1)C(C)C (stereo partly drawn) [Compound A163] | < 1 | > 75000 | – | – | – | – | –
COC(=O)N[C@H](C(=O)N1CCC[C@H]1c1nc2cc(-c3csc4c(-c5ccc(-c6cnc([C@@H]7CCCN7C(=O)[C@H](NC(=O)OC)c7ccccc7)[nH]6)cc5)csc34)ccc2[nH]1)C(C)C [Compound A169, [(S)-1-((S)-2-{6-[6-(4-{(S)-2-[1-((R)-2-methoxycarbonylamino-2-phenyl-acetyl)-pyrrolidin-2-yl]-3H-imidazol-4-yl}-phenyl)-thieno[3,2-b]thiophen-3-yl]-1H-benzoimidazol-2-yl}-pyrrolidine-1-carbonyl)-2-methyl-propyl]-carbamic acid methyl ester] | – | – | > 75000 | < 0.1 | < 0.1 | < 0.1 | < 0.1
COC(=O)N[C@H](C(=O)N1CCC[C@H]1c1ncc(-c2ccc(-c3csc4c(-c5ccc6[nH]c([C@@H]7CCCN7C(=O)[C@@H](NC(=O)OC)C(C)C)nc6c5)csc34)cc2)[nH]1)C(C)C [Compound A171, [(S)-1-((S)-2-{4-[4-(6-{2-[(S)-1-((S)-2-methoxycarbonylamino-3-methyl-butyryl)-pyrrolidin-2-yl]-3H-benzoimidazol-5-yl}-thieno[3,2-b]thiophen-3-yl)-phenyl]-1H-imidazol-2-yl}-pyrrolidine-1-carbonyl)-2-methyl-propyl]-carbamic acid methyl ester] | – | – | > 75000 | 0.1 to 1 | < 0.1 | 1 to 10 | < 0.1
COC(=O)N[C@H](C(=O)N1CCC[C@H]1c1ncc(-c2ccc(-c3csc4c(-c5ccc6[nH]c([C@@H]7CCCN7C(=O)[C@H](NC(=O)OC)c7ccccc7)nc6c5)csc34)cc2)[nH]1)C(C)C [Compound A172, [(S)-1-((S)-2-{5-[4-(6-{(S)-2-[1-((R)-2-methoxycarbonylamino-2-phenyl-acetyl)-pyrrolidin-2-yl]-3H-benzoimidazol-5-yl}-thieno[3,2-b]thiophen-3-yl)-phenyl]-1H-imidazol-2-yl}-pyrrolidine-1-carbonyl)-2-methyl-propyl]-carbamic acid methyl ester] | – | – | > 75000 | < 0.1 | < 0.1 | < 0.1 | < 0.1
COC(=O)N[C@H](C(=O)N1CCCC1c1ncc(-c2ccc(-n3ccc4c(-c5cnc(C6CCCN6C(=O)[C@@H](NC(=O)OC)C(C)C)[nH]5)csc43)c(Cl)c2)[nH]1)C(C)C (stereo partly drawn) [Compound A213] | – | – | 10000 to 75000 | – | – | – | < 0.1
